Reference: paper PMC9004346, “Development of small cyclic peptides targeting the CK2α/β interface” (Chemical Communications (Cambridge, England), 2022)
Read-outs that look alike come from different tables or passages of the source. *1 amine or outer side, *2 acyl side, *3 side chain or, on linkers, in order; H or OH if unused. Where a SMILES comes first, the peptide text is derived from it. Bridges are numbered along the chain shown (N, C = ends). [ ]: non-standard residue; d: D form. Trp(2-yl) = O=C([C@H](Cc1c([*:3])[nH]c2ccccc12)N[*:1])[*:2]; hCys = N[C@@H](CCS)C(=O)O; Ahx = NCCCCCC(=O)O

Legend:
Serum stability test = format: in vitro ADME; details: 20% human serum in PBS, 37 °C, monitored over 24 h
Procedure: 1.6.3 Serum stability test
500 μL of PBS buffer supplemented with 20% (v/v) of human serum was allocated into an Eppendorf tube and temperature kept at 37 °C for 15 minutes before commencing the experiment. 5 µL of the peptide from 10 mM stock solution in DMSO was added. Caffeine was added as an internal standard (10 μL of a 15 mg/mL solution in MQ water). At specific intervals, 50 µL of the reaction mixture was taken and quenched with 100 µL of a 1:1 mixture of 96% Ethanol:DMSO. The suspension was spun at 13400 g for 10 minutes. 100 μL of the supernatant was analysed using C-18 HPLC with an eluting gradient 5-95% MeCN (0.05% TFA) in water (0.05% TFA) over 15 minutes (90 μL injection volume).
Percentage of intact starting peptide was monitored over 24 h (calculated as the ratio of the area of […]
the peak corresponding to the intact peptide to the area of the peak of caffeine). The experiment was […]
1 M. M. Wiedmann, Y. S. Tan, Y. Wu, S. Aibara, W. Xu, H. F. Sore, C. S. Verma, L. Itzhaki, M.
Stewart, J. D. Brenton and D. R. Spring, Angew. Chemie Int. Ed., 2017, 56, 524–529.
3 G. T. Potter, G. C. Jayson, G. J. Miller and J. M. Gardiner, J. Org. Chem., 2016, 81, 3443–3446.
4 J. Iegre, P. Brear, D. J. Baker, Y. S. Tan, E. L. Atkinson, H. F. Sore, D. H. O’ Donovan, C. S. Verma,
7 C. Puig Duran, F. Albericio Palomera, M. Gongora Benitez, M. Paradis Bas, L. Miret Casals, I. […]

HeLa cells = assay: MTT cell viability assay in HeLa cells; format: cell-based; details: HeLa cells, MTT, 48 h
Procedure: (§1) HeLa cells were maintained in 5% CO2 in DMEM supplemented with 10% FBS, 2 mM L-glutamine, 100 U/mL penicillin and […] streptomycin, in an atmosphere containing 5% CO2.
(§2) Cells were regularly passed and used for experiments within one month after thawing (10-15 […]
(§3) 1.6.2 Cell viability assay
(§4) Cell viability was assayed by 3-(4,5-dimethylthiazol-2-yl)-2,5-diphenyltetrazolium bromide (MTT) colorimetric assay. HeLa cells were plated on 96-well plates (20,000 cells per well in 100 μL). After 24 h, cells were treated with different concentrations of test compounds or vehicle alone (DMSO). One hour before the end of the incubations, 10 μL of MTT solution (5 mg/mL in PBS) were added to each well. Formazan crystals (proportional to the number of viable cells) were then dissolved by the addition of 20 μL/well of a pH 4.7 solution containing 20% (w:v) SDS, 50% (v:v) N,N-dimethylformamide, 2% (v:v) acetic acid, and 25 mM HCl, and quantified by recording the absorbance at 570 nm using an Infinite M200 PRO plate reader (TECAN, Life Sciences). […]

[1] = MTT cell viability assay in HeLa cells; format: cell-based; details: human
Procedure: as §1, §2, §3, §4

## CC(=O)N[C@@H](CCS)C(=O)N[C@@H](CCCNC(=N)N)C(=O)N[C@@H](CC(C)C)C(=O)N[C@@H](Cc1ccc(O)cc1)C(=O)NCC(=O)N[C@@H](Cc1ccccc1)C(=O)N[C@@H](CCCCN)C(=O)N[C@@H](Cc1c[nH]c2ccccc12)C(N)=O [Peptide P8] (Ac-[hCys]RLYGFKW-NH2)
Serum stability test
  Serum stability (in words): fully had degraded after 1 h

## CC(C)C[C@@H]1NC(=O)[C@H](CCCNC(=N)N)NC(=O)[C@@H](NC(=O)CCCCCNC(=O)CCCCCNC(=O)[C@H](CCCNC(=N)N)NC(=O)[C@H](CCCNC(=N)N)NC(=O)[C@@H](N)CCCNC(=N)N)CCSc2[nH]c3ccccc3c2C[C@@H](C(N)=O)NC(=O)[C@H](CCCCN)NC(=O)[C@H](Cc2ccccc2)NC(=O)CNC(=O)[C@H](Cc2ccc(O)cc2)NC1=O [Peptide R3-P8C9] (H-RRR[Ahx][Ahx][hCys]RLYGFK[Trp(2-yl)]-NH2; thioether 6-13)
HeLa cells
  Effect on cell viability (in words): large reduction in cell viability
[1]
  viability at 48 h, 50 µM: 66 ± 5%
  viability at 48 h, 100 µM: 54 ± 4%

## CC(C)C[C@@H]1NC(=O)[C@H](CCCNC(=N)N)NC(=O)[C@@H](NC(=O)CCCCCNC(=O)CCCCCNC(=O)[C@H](CCC(N)=O)NC(=O)[C@@H]2CCCN2C(=O)[C@@H]2CCCN2C(=O)[C@H](CCCNC(=N)N)NC(=O)[C@H](CCCNC(=N)N)NC(=O)[C@H](CCCNC(=N)N)NC(=O)[C@H](CCC(N)=O)NC(=O)[C@H](CCCNC(=N)N)NC(=O)[C@H](CCCNC(=N)N)NC(=O)[C@H](CCCCN)NC(=O)[C@H](CCCCN)NC(=O)[C@H](CCCNC(=N)N)NC(=O)CN)CCSc2[nH]c3ccccc3c2C[C@@H](C(N)=O)NC(=O)[C@H](CCCCN)NC(=O)[C@H](Cc2ccccc2)NC(=O)CNC(=O)[C@H](Cc2ccc(O)cc2)NC1=O [TAT-P8C9] (H-GRKKRRQRRRPPQ[Ahx][Ahx][hCys]RLYGFK[Trp(2-yl)]-NH2; thioether 16-23)
HeLa cells
  Effect on cell viability (in words): large reduction in cell viability
[1]; HeLa cells, 48 h, 50 μM compound, ±standard deviation, read-out: Cell viability (%) 50 μM compound
  viability at 48 h, 50 µM: 66 ± 4%
[1]; HeLa cells, 48 h, 100 μM compound, ±standard deviation, read-out: Cell viability (%) 100 μM compound
  viability at 48 h, 100 µM: 26 ± 7%
